In PubChem BioAssay (NCI) one finds TGI data, which are given here for 15 compounds.

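The compound was tested at five concentrations on cells cultured in 96-well plates, with a 48-hour exposure period. The concentration for full growth arrest is given as TGI.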

What all share (assay): NCI-60 cell line screen, 48 h
Experiment [1] has as its system ACHN renal.
Experiment [2] deals with NCI-H522 lung.
Experiment [3] deals with EKVX NSCLC.
Experiment [4] deals with UACC-62 melanoma.
Experiment [5] concerns HCT-15 colon.
Experiment [6] relates to SNB-75 CNS.
Experiment [7] concerns IGROV1 ovarian.
Experiment [8] concerns SR leukemia.
Experiment [9] relates to SF-295 CNS.

`CCc1ccc(Cc2ccc(CC)c(NC(=O)C(=O)Cc3nc4ccccc4nc3C)c2CC)c(CC)c1NC(=O)C(=O)Cc1nc2ccccc2nc1C`: the TGI was > 100 µM in experiment [1]; > 100 µM in [2]; > 100 µM in experiment [3]; > 100 µM in experiment [4]; > 100 µM in experiment [5]; 44.4 µM in experiment [6]. For the same compound, the TGI in experiment [7] was > 100 µM.

In the case of `CN(C)C1(C#N)CCC2(CC1)OCCO2`, the TGI in [1], in [2], in experiment [3], in experiment [4], in [5] and in experiment [6] was > 100 µM each time. Moreover, the TGI in experiment [7], in experiment [8] and in [9] was > 100 µM each time.

Consider `COCCNC(=O)C1C(=O)N(CCOC)C(=O)/C1=N/N` (stereo unspecified), for which the TGI in experiment [1], in experiment [2], in experiment [3], in experiment [4], in experiment [5] and in [6] was > 100 µM in each case. Also, the TGI in experiment [7], in experiment [8] and in experiment [9] was > 100 µM each time.

`CCCOC(=O)C1CCC(=O)N1C(=O)C(Cl)Cl` (stereo unspecified): the TGI in experiment [1], in [2], in [3], in experiment [4], in [5] and in experiment [6] was > 100 µM throughout. In addition, the TGI in [7] and in [9] was > 100 µM in each case.

With `O=C(CC(O)(c1ccccc1)c1ccc(Cl)cc1)NC(=O)c1ccccc1O` (stereo unspecified), the TGI in experiment [1] was 99 µM; in experiment [2] it was 14.9 µM; in experiment [3], 68.2 µM; in [4], 21.3 µM; in [5] it was 37.5 µM; in experiment [6], 40.8 µM. The TGI in experiment [7] is > 100 µM; in experiment [8], 39.6 µM; in [9] it was 26.3 µM.

As for `[N-]=[N+]=Nc1ccc(S(=O)(=O)Oc2cc(OS(=O)(=O)c3ccc(N=[N+]=[N-])cc3)cc(OS(=O)(=O)c3ccc(N=[N+]=[N-])cc3)c2)cc1`, the TGI in experiment [1] is > 10 µM; in [2], > 100 µM; in experiment [3], > 100 µM; in experiment [4], > 100 µM; in [5], > 100 µM; in experiment [6] it was > 10 µM. Moreover, the TGI in experiment [7], in experiment [8] and in experiment [9] was > 100 µM in each case.

As to `COc1ccc(NC(=O)CC/C(CC(=O)c2ccco2)=N/Nc2ccc([N+](=O)[O-])cc2[N+](=O)[O-])cc1`, the TGI in experiment [1], in experiment [2], in [3], in experiment [4], in experiment [5] and in [6] was > 100 µM each time. Besides, the TGI was > 100 µM in [7], 64.4 µM in experiment [8] and > 100 µM in experiment [9].

Regarding `CC(=O)OC1COC(N2C(=O)C(=O)c3c(C)cc(Cl)nc32)C(OC(C)=O)C1OC(C)=O` (stereo unspecified), the TGI in [1], in experiment [3], in [4], in experiment [5], in experiment [6] and in [7] was > 100 µM each time. The TGI in experiment [8] and in experiment [9] was > 100 µM each time.

Take `COC1OC(OC)C2C(c3c(C)cc(C)cc3C)=NOC12` (stereo unspecified): the TGI in [1], in experiment [2], in [3], in experiment [4], in [5] and in [6] was > 100 µM each time. For the same compound, the TGI in [7], in experiment [8] and in experiment [9] was > 100 µM each time.

With `COC(=O)C1=Cc2cc3c(cc2[C@H](c2ccc4c(c2)OCO4)C1C(=O)OC)OCO3` (stereo partly specified), the TGI in experiment [1], in experiment [3], in [4], in experiment [5], in [6] and in [7] was > 100 µM each time. Besides, the TGI in [8] and in [9] was > 100 µM in each case.

In the case of `COc1ccc(C(=O)O/N=C2\CCCC\C2=C/c2ccccc2)cc1`, the TGI in [1] is > 100 µM; in experiment [3] it was > 100 µM; in experiment [4], > 100 µM; in experiment [5], > 100 µM; in [6], 62 µM; in experiment [7], > 100 µM.

In the case of `COC1CCC(=C2C(=O)OC(C)(C)OC2=O)N1` (stereo unspecified), the TGI in experiment [1], in [2], in experiment [3], in experiment [4], in [5] and in experiment [6] was > 100 µM each time. In addition, the TGI in experiment [7] and in experiment [9] was > 100 µM each time.

With `COC(=O)C(=O)C(C#N)c1cccc2ccccc12` (stereo unspecified), the TGI in [1], in [2], in [3], in experiment [4], in experiment [5] and in experiment [6] was > 100 µM each time. The TGI in experiment [7], in experiment [8] and in [9] was > 100 µM in each case.

Turning to `CCCCN(CCCC)C(=Nc1ccccc1)N(CCCC)CCCC`, the TGI in experiment [1] stood at 82 µM; in [2], 7.41 µM; in [3] it was 17.5 µM; in [6], 37.7 µM; in experiment [7], 23.1 µM; in experiment [9], 23.1 µM.

`CCCCNC(=S)Nn1c(-c2ccccc2)nc2ccccc2c1=O`: the TGI in [1], in experiment [2], in experiment [4], in [5], in [6] and in experiment [7] was > 100 µM in each case. In addition, the TGI in [9] was > 100 µM.
